These results are taken from patent US20230150997A1, “EIF4E INHIBITORS AND USES THEREOF” (PIC Therapeutics, Inc., priority 2021, published 2023).

SMILES strings stand for the structures.

This test deals with T1, Human eIF4E (Homo sapiens, UniProt P06730).
T1 construct: Human eIF4E (aa 28-217) with a C-terminal His-tag; made in house
T1 sequence (P06730 28-217): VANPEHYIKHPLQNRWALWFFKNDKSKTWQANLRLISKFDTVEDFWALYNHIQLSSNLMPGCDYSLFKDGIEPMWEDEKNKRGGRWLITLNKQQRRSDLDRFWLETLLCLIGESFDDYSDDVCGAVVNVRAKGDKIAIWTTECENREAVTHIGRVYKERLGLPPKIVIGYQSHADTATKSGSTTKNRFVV
Description: Human eIF4E/4G2 binding assay (TR-FRET). As to conditions: purified human eIF4E (aa 28-217), biotin labeled 4G2 peptide, 4 hours preincubation at room temperature. Here is the method:
Example 3. Compound Testing in Human eIF4E/4G2 Binding Assay
Human eIF4E (aa 28-217) with a C-terminal His-tag was expressed in E. coli in inclusion bodies. The protein was solubilized with 8 M urea and purified under denaturing conditions using nickel-charged HisTrap HP columns (GE Healthcare). The purified protein was then refolded by diluting in 20 mM Hepes pH 7.0, 0.5 M NaCl, 1 mM DTT, 1 mM EDTA, 0.5 M arginine plus 6 M urea, and then dialyzing overnight into the same buffer without the urea. The protein was further dialyzed into 20 mM Hepes, pH 6.5, 50 mM NaCl, 1 mM EDTA, 1 mM DTT, and concentrated using Hitrap SP sepharose FF columns (GE Healthcare). The concentrated protein was dialyzed into 20 mM Hepes, pH 7.0, 0.5 M NaCl, 5 mM DTT and 10% glycerol, and stored at -80° C. until use.
Test compounds (3.43 mM stock in DMSO) were diluted 2-fold in series in DMSO (10 concentration points). Compound solutions (1.2 µl/well) were added into black 384-well polypropylene microplates (Matrix, Thermal Scientific). Twenty-two microliters per well of Assay Buffer (50 mM NaPi, pH 6.5, 50 mM KCl, 1 mM DTT and 0.5 mg/ml gamma globulin) and eight microliters per well of 82.5 nM purified eIF4E in Assay Buffer were added. The samples were incubated at room temperature (20-23° C.) for 4 hours. Biotin labeled 4G2 peptide (Ac-Lys-Gln-Tyr-Asp-Arg-Glu-Phe-Leu-Leu-Asp-Phe-Gln-Phe-Met-Pro-Lys(Aha-Bio)-NH2, 1.75 µM stock in DMSO) was diluted to 0.14 µM in Assay Buffer (without DTT) and 5 µl/well was added. The samples were incubated at room temperature for 20 min. Five microliters per well of 6.4 nM Eu-streptavidin (Eu-SA, Perkin Elmer) and 80 nM Allophycocyanin (APC)-anti His antibody (Columbia Biosciences) in Assay Buffer (without DTT) were then added and the samples were incubated at room temperature for 20 min.
Assay signals were monitored by reading excitation at 340 nm and emission fluorescence at 615 nm and 665 nm on an Envision reader (Perkin Elmer). Normalized TR-FRET (time-resolved fluorescence resonance energy transfer) assay signal (Rn) was calculated by the formula: Rn = [(A-Ba-C x D)/(D-Bd)] x (Dc- Bd) • Where A is the fluorescence intensity of the sample at 665 nm, • D is the fluorescence intensity of the sample at 615 nm, • Ba and Bd are plate backgrounds at 665 nm and 615 nm, respectively, • Dc is the fluorescence intensity of 0.78 nM Eu-SA in the assay buffer at 615 nm • The cross-talk factor (C) is determined by the following formula: • C = (Ac- Ba)/(Dc-Bd) • Where Ac is the fluorescence intensity of 0.78 nM Eu-SA in the assay buffer at 665 nm.
IC50 values were calculated using xLFit program (IDBS). Table 2 below lists […] of some compounds, wherein A represents IC50 ≤ 0.5 µM; B represents 0.5 uM < IC50 ≤ 1 µM; and C represents IC50 > 1 µM.
Molecule `COCCOc1ccc(-c2nc(Nc3ncc(-c4ccc(C)s4)cc3C(=O)O)sc2CC(C)C)cc1Cl` [I-43] showed an IC50 of at most 500 nM.

On to `COCCOc1ccc(-c2nc(Nc3ncc(-c4cc(C)cs4)cc3C(=O)O)sc2CC(C)C)cc1` [1-35], for which the IC50 is at most 500 nM.

The molecule `CC(C)Cc1sc(Nc2ncc(-c3cccs3)cc2C(=O)O)nc1-c1ccc(O)cc1` [I-13] had a 50% inhibitory concentration (IC50) above 1000 nM.

`Cc1ccc(-c2nc(Nc3ncc(-c4cccs4)cc3C(=O)O)sc2CC(C)C)cc1OC(C)C` [I-114] yielded an IC50 of at most 500 nM.

Consider `COCCOc1cc(-c2nc(Nc3ncc(-c4cccs4)cc3C(=O)O)sc2CC(C)C)ccc1F` [I-59], for which the IC50 fell in the range of 500 to 1000 nM.

Molecule `COCCOc1ccc(-c2nc(Nc3ncc(-c4cccs4)cc3C(=O)O)sc2C2CC2)cc1F` [I-29] returned an IC50 of 500 to 1000 nM.

`COc1cc(-c2nc(Nc3ncc(-c4cccs4)cc3C(=O)O)sc2CC(C)(C)C)ccc1F` [I-91] registered an IC50 of at most 500 nM.

`COCCOc1ccc(-c2nc(Nc3ncc(-c4ccsc4)cc3C(=O)O)sc2CC(C)C)cc1F` [I-55] showed an IC50 of 500 to 1000 nM.

Molecule `COCCOc1ccc(-c2nc(Nc3ncc(-c4cccs4)cc3C(=O)O)sc2CC(C)(C)C)cc1F` [I-65] came in with a concentration for half-maximal inhibition (IC50) of at most 500 nM.

The molecule `COc1cc(-c2nc(Nc3ncc(-c4cccs4)cc3C(=O)O)sc2CC(C)C)ccc1C(F)(F)F` [I-77] came in with an IC50 of at most 500 nM.

`CC(C)Cc1sc(Nc2ncc(-c3cccs3)cc2C(=O)O)nc1-c1ccc(OC(F)(F)F)c(Cl)c1` [I-9] registered an IC50 of at most 500 nM.

For the molecule `COc1ccc(-c2nc(Nc3ncc(-c4cccs4)nc3C(=O)O)sc2CCC(C)C)cc1Cl` [I-61], the IC50 is at most 500 nM.

`COc1ccc(-c2nc(Nc3ncc(-c4cccs4)cc3C(=O)O)sc2C2CC2)cc1F` [I-28] returned an IC50 of 500 to 1000 nM.

Consider `CC(C)Cc1sc(Nc2ncc(-c3cccs3)cc2C(=O)O)nc1-c1cccc(Oc2ccccc2)c1` [I-129, 2-((5-isobutyl-4-(3-phenoxyphenyl)thiazol-2-yl)amino)-5-(thiophen-2-yl)nicotinic acid], for which the IC50 is at most 500 nM.

`COCCOc1ccc(-c2nc(Nc3ccc(-c4cccs4)cc3C(=O)O)sc2CC(C)C)cc1F` [I-64] showed an IC50 of at most 500 nM.

In turn, `COCCOc1ccc(-c2nc(Nc3ncc(-c4cc(C)cs4)cc3C(=O)O)sc2CC(C)C)cc1F` [I-42] had an IC50 of at most 500 nM.

In the case of `CC(C)Cc1sc(Nc2ncc(-c3cccs3)cc2C(=O)O)nc1-c1ccc2c(c1)OC(C)(C)O2` [I-125], the IC50 was at most 500 nM.

In turn, `O=C(O)c1sc(-c2ccccc2)cc1Nc1nc(-c2ccc(O)cc2)c(C2CC2)s1` [I-24] registered a half-maximal inhibitory concentration (IC50) above 1000 nM.

`COc1cc(-c2nc(Nc3ncc(-c4cccs4)cc3C(=O)O)sc2CC(C)C)ccc1F` [I-73] returned an IC50 of 500 to 1000 nM.

`COCCOc1ccc(-c2nc(Nc3cc(-c4ccccc4)sc3C(=O)O)sc2CC(C)C)cc1` [I-23] showed an IC50 of 500 to 1000 nM.

As for `CCOc1cccc(-c2nc(Nc3ncc(-c4cccs4)cc3C(=O)O)sc2CC(C)C)c1` [I-79], the IC50 is at most 500 nM.

Take `CC(C)Cc1sc(Nc2ncc(-c3cccs3)cc2C(=O)O)nc1-c1ccc2c(c1)OCO2` [I-124, 2-((4-(benzo[d][1,3]dioxol-5-yl)-5-isobutylthiazol-2-yl)amino)-5-(thiophen-2-yl)nicotinic acid]: the IC50 was at most 500 nM.

The molecule `CC(C)Cc1sc(Nc2ncc(-c3cccs3)cc2C(=O)O)nc1-c1cccc(O)c1` [I-111] came in with an IC50 of 500 to 1000 nM.

`COCCOc1cc(C)cc(-c2nc(Nc3ncc(-c4cccs4)cc3C(=O)O)sc2CC(C)C)c1` [I-118] showed an IC50 of at most 500 nM.

The molecule `COCCOc1ccc(-c2nc(Nc3ncc(-c4cccs4)cc3C(=O)O)sc2C2CC2)cc1` [I-22] showed an IC50 of 500 to 1000 nM.

For the molecule `COCCOc1ccc(-c2nc(Nc3ncc(-c4ccco4)cc3C(=O)O)sc2CC(C)C)cc1F` [I-57], the IC50 is 500 to 1000 nM.

As to `COCCOc1ccc(-c2nc(Nc3ncc(-c4cccs4)cc3C(=O)O)sc2CC(C)C)cc1C(F)(F)F` [I-58], the IC50 was at most 500 nM.

Consider `CC(C)Cc1sc(Nc2ncc(-c3cccs3)cc2C(=O)O)nc1-c1cccc(OCC(F)(F)F)c1` [I-102], for which the IC50 is at most 500 nM.

The molecule `CC(C)COc1cc(-c2nc(Nc3ncc(-c4cccs4)cc3C(=O)O)sc2CC(C)C)ccc1F` [I-89] displayed an IC50 of at most 500 nM.

For `CC(C)Cc1sc(Nc2ncc(-c3cccs3)cc2C(=O)O)nc1-c1cccc(OCCOCCN(C)C)c1` [I-116], the IC50 was above 1000 nM.

The molecule `CC(C)Cc1sc(Nc2ncc(-c3cccs3)cc2C(=O)O)nc1-c1ccsc1` [I-127] came in with an IC50 of at most 500 nM.

For `COCCOc1cc(-c2nc(Nc3ncc(-c4cccs4)cc3C(=O)O)sc2CCC(C)C)ccc1F` [I-84], the IC50 is at most 500 nM.

Consider `COc1ccc(-c2nc(Nc3cnc(-c4cccs4)cc3C(=O)O)sc2CC(C)C)cc1F` [I-71], for which the IC50 fell in the range of 500 to 1000 nM.

With `Cc1ccc(-c2cnc(Nc3nc(-c4ccc(OC(F)F)cc4)c(C4CCCC4)s3)c(C(=O)O)c2)s1` [I-40], the concentration for half-maximal inhibition (IC50) is at most 500 nM.

For `COCCOc1ccc(-c2nc(Nc3cc(-c4ccccc4)sc3C(=O)O)sc2C2CC2)cc1` [I-20], the IC50 lay within 500 to 1000 nM.

Consider `CC(C)Cc1sc(Nc2ncc(-c3cccs3)cc2C(=O)O)nc1-c1cccs1` [I-126], for which the 50% inhibitory concentration (IC50) is at most 500 nM.

In the case of `COc1ccc(-c2nc(Nc3ncc(-c4cccs4)cc3C(=O)O)sc2C2CC2)c(F)c1` [I-27], the IC50 lay within 500 to 1000 nM.

In the case of `CC(C)Cc1sc(Nc2ncc(-c3cccs3)cc2C(=O)O)nc1-c1ccc(OC2CC2)cc1` [I-8], the IC50 is at most 500 nM.

The molecule `CC(C)COc1cc(-c2nc(Nc3ncc(-c4cccs4)cc3C(=O)O)sc2CC(C)(C)C)ccc1Cl` [I-97] displayed an IC50 of at most 500 nM.

`COc1ccc(-c2nc(Nc3ncc(-c4cccs4)cc3C(=O)O)sc2CCC(C)C)cc1F` [I-69] returned an IC50 of at most 500 nM.

The molecule `COc1ccc(-c2nc(Nc3cc(-c4ccccc4)sc3C(=O)O)sc2CC(C)C)cc1` [I-12] returned an IC50 of 500 to 1000 nM.

For the molecule `CCOc1cccc(-c2nc(Nc3ncc(-c4ccco4)cc3C(=O)O)sc2CC(C)C)c1` [I-115], the IC50 was at most 500 nM.

Turning to `COCCOc1ccc(-c2nc(Nc3ncc(-c4cccs4)cc3C(=O)O)sc2C2CC2)c(F)c1` [I-26], the IC50 was above 1000 nM.

`CC(C)Cc1sc(Nc2ncc(-c3cccs3)cc2C(=O)O)nc1-c1ccc(OC(F)F)cc1` [I-15] gave an IC50 of 500 to 1000 nM.

With `COCCOc1ccc(-c2nc(Nc3ncc(-c4ccc(C)s4)cc3C(=O)O)sc2C2CCCC2)cc1` [I-37], the IC50 is at most 500 nM.

Regarding `COc1ccc(-c2nc(Nc3ncc(-c4cccs4)cc3C(=O)O)sc2C2CC2)cc1` [I-18], the concentration for half-maximal inhibition (IC50) is 500 to 1000 nM.

The molecule `COCCOc1ccc(-c2nc(Nc3ncc(-c4nccs4)cc3C(=O)O)sc2CC(C)C)cc1F` [I-51] had a 50% inhibitory concentration (IC50) of at most 500 nM.

Consider `CC(C)Cc1sc(Nc2ncc(-c3cccs3)cc2C(=O)O)nc1-c1ccc(OCC(F)(F)F)cc1` [I-7], for which the IC50 is at most 500 nM.

The molecule `CCOc1cc(-c2nc(Nc3ncc(-c4cccs4)cc3C(=O)O)sc2CC(C)C)ccc1Cl` [I-80] had an IC50 of at most 500 nM.

`CCc1ccc(-c2nc(Nc3ncc(-c4cccs4)cc3C(=O)O)sc2CC(C)C)cc1OC` [I-110] had a half-inhibitory concentration (IC50) of at most 500 nM.

On to `Cc1csc(-c2cnc(Nc3nc(-c4ccc(OC(F)F)cc4)c(C4CCCC4)s3)c(C(=O)O)c2)c1` [1-39], for which the IC50 was at most 500 nM.

`CC(C)Cc1sc(Nc2cc(-c3ccccc3)sc2C(=O)O)nc1-c1ccc(OC2CC2)cc1` [I-14] gave an IC50 of 500 to 1000 nM.

Turning to `CCCc1sc(Nc2ncc(-c3cccs3)cc2C(=O)O)nc1-c1cccc(OCC)c1` [I-112], the half-maximal inhibitory concentration (IC50) was at most 500 nM.

By IC50 is commonly meant the concentration at which inhibition is half-maximal.
